This note sets out measurements from patent US8334382B2, “Substituted biaryl piperazinyl-pyridine analogues” (Neurogen Corporation, priority 2004, dated 2012).

Some results are limits rather than exact numbers.

This test concerns the target T1, human capsaicin receptor (Homo sapiens, UniProt Q8NER1).
T1 construct: expressed in transfected cells; host or cells: HEK293, stably transfected with pBK-CMV construct
The test can be described thus: Calcium mobilization assay, determination of antagonist activity. Format: cell-based. Particulars: capsaicin at EC50; cells expressing human capsaicin receptor; Example 6. Summed up: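 HEK293 cells stably expressing full-length human TRPV1, loaded with Fluo-3 AM in KRH buffer pH 7.4, preincubated with compound (final 1-5 µM) in the dark at room temperature for 0.5-6 h, then stimulated with capsaicin at its EC50. FLIPR fluorescence gave IC50 as concentration halving the capsaicin response.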

What is called IC50 is the concentration needed to halve the response being measured.

T1 sequence (Q8NER1 whole entry): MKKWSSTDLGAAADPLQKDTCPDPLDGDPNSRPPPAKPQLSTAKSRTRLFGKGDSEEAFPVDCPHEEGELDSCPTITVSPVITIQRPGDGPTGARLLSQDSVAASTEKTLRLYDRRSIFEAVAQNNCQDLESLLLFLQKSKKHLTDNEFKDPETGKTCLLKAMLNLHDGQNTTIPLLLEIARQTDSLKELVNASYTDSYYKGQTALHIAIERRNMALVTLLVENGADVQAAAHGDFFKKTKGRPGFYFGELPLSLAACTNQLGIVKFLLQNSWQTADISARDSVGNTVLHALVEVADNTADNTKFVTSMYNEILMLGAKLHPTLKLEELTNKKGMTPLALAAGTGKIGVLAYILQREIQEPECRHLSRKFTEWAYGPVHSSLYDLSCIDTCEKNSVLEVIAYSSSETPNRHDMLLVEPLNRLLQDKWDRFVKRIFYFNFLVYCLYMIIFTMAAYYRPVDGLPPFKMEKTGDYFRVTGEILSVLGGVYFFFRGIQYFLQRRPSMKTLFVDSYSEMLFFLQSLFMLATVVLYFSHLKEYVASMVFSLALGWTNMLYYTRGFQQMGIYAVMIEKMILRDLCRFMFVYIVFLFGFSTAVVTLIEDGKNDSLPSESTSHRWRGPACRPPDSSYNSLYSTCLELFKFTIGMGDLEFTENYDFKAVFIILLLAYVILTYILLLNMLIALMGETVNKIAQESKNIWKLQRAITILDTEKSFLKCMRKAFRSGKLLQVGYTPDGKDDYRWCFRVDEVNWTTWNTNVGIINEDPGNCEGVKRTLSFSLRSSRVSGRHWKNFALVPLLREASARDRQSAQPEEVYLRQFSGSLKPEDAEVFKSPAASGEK

For `Cc1cc(C(=O)O)cnc1N1CCN(c2cc(-c3ccnc(C(C)C)c3)nc(N3CCCC3C)n2)[C@H](C)C1` (stereo partly drawn) [Example 80, 6-{4-[6-(2-Isopropyl-pyridin-4-yl)-2-(2-methyl-pyrrolidin-1-yl)-pyrimidin-4-yl]-3-(R)-methyl-piperazin-1-yl}-5-methyl-nicotinic acid], the concentration for half-maximal inhibition (IC50) is at most 1000 nM.

Take `Cc1cc(C(=O)O)cnc1N1CCN(c2cc(-c3ccc(F)cc3)nc(N(C)C)n2)[C@H](C)C1` [Example 81, 6-{4-[2-Dimethylamino-6-(4-fluoro-phenyl) - pyrimidin-4-yl]-3-(R)-methyl-piperazin-1-yl}-5-methyl-nicotinic acid]: the half-inhibitory concentration (IC50) was at most 1000 nM.

As to `Cc1cc(C(N)=O)cnc1N1CCN(c2cc(-c3ccccc3)nc(N3CCCC3C)n2)[C@H](C)C1` (stereo partly drawn) [Example 82, 5-Methyl-6-{3-(R)-methyl-4-[2-(2-methyl-pyrrolidin-1-yl)-6-phenyl-pyrimidin-4-yl]-piperazin-1-yl}-nicotinamide], the IC50 was at most 1000 nM.

For `Cc1cc(C(N)=O)cnc1N1CCN(c2cc(-c3ccc(F)cc3)nc(N(C)C)n2)[C@H](C)C1` [Example 83, 6-{4-[2-Dimethylamino-6-(4-fluoro-phenyl)-pyrimidin-4-yl]-3-(R)-mcthyl-piperazin-1-yl}-5-methyl-nicotinamide], the IC50 is at most 1000 nM.

Turning to `Cc1cc(C(N)=O)cnc1N1CCN(c2cc(-c3ccccc3)nc(N(C)C)n2)[C@H](C)C1` [Example 84, 6-[4-(2-Dimethylamino-6-phenyl-pyrimidin-4-yl)-3-(R)-methyl-piperazin-1-yl]-5-methyl-nicotinamide], the IC50 was at most 1000 nM.

Consider `Cc1cc(C(N)=O)cnc1N1CCN(c2cc(-c3ccncc3)nc(N(C)C)n2)[C@H](C)C1` [Example 85, 6-[4-(2-Dimethylamino-6-pyridin-4-yl-pyrimidin-4-yl)-3-(R)-methyl-piperazin-1-yl]-5-methyl-nicotinamide], for which the IC50 is at most 1000 nM.

For `C[C@@H]1CN(c2ncc(C(N)=O)cc2Cl)CCN1c1cc(-c2ccc(F)c(Cl)c2)ncn1` [Example 86, 5-Chloro-6-{4-[6-(3-chloro-4-fluoro-phenyl)-pyrimidin-4-yl]-3-(R)-methyl-piperazin-1-yl}-nicotinamide], the IC50 was at most 1000 nM.

Regarding `Cc1cc(C(N)=O)cnc1N1CCN(c2cc(-c3ccccc3)nc(N3CCCC3C)n2)CC1` (centres unmarked) [Example 87, 5-Methyl-6-{4-[2-(2-methyl-pyrrolidin-1-yl)-6-phenyl-pyrimidin-4-yl]-piperazin-1-yl}-nicotinamide], the IC50 is at most 1000 nM.

As for `Cc1cccc(-c2cc(N3CCN(c4ncc(C(N)=O)cc4C)CC3)nc(N3CCCC3C)n2)c1` (centres unmarked) [Example 88, 5-Methyl-6-{4-[2-(2-methyl-pyrrolidin-1-yl)-6-m-tolyl-pyrimidin-4-yl]-piperazin-1-yl}-nicotinamide], the IC50 is at most 1000 nM.

Consider `Cc1cc(C(N)=O)cnc1N1CCN(c2cc(-c3ccncc3)nc(N3CCCC3C)n2)CC1` (centres unmarked) [Example 89, 5-Methyl-6-{4-[2-(2-methyl-pyrrolidin-1-yl)-6-pyridin-4-yl-pyrimidin-4-yl]-piperazin-1-yl}-nicotinamide], for which the half-inhibitory concentration (IC50) was at most 1000 nM.

Consider `Cc1cc(C(N)=O)cnc1N1CCN(c2cc(-c3ccnc(C(C)C)c3)nc(N3CCCC3C)n2)CC1` (centres unmarked) [Example 90, 6-{4-[6-(2-Isopropyl-pyridin-4-yl)-2-(2-methyl-pyrrolidin-1-yl)-pyrimidin-4-yl]-piperazin-1-yl}-5-methyl-nicotinamide], for which the IC50 was at most 1000 nM.

`Cc1cc(C(=N)N)cnc1N1CCN(c2cc(-c3ccc(F)cc3)nc(N3CCCC3C)n2)CC1` (centres unmarked) [Example 91, 6-{4-[6-(4-fluorophenyl)-2-(2-methylpyrrolidin-1-yl)pyrimidin-4-yl]piperazin-1-yl}-5-methylpyridine-3-carboximidamide]: the IC50 is at most 1000 nM.

Consider `C[C@@H]1CCCN1c1nc(-c2ccc(F)cc2)cc(N2CCN(c3ncc(C(=O)O)cc3Cl)CC2)n1` [Example 92, 5-Chloro-6-{4-[6-(4-fluoro-phenyl)-2-(2-(R)-methyl-pyrrolidin-1-yl)-pyrimidin-4-yl]-piperazin-1-yl}-nicotinic acid], for which the IC50 is at most 1000 nM.

Regarding `C[C@@H]1CCCN1c1nc(-c2ccc(F)cc2)cc(N2CCN(c3ncc(CC(=O)O)cc3Cl)CC2)n1` [Example 93, (5-Chloro-6-{4-[6-(4-fluoro-phenyl)-2-(2-(R)-methyl-pyrrolidin-1-yl)-pyrimidin-4-yl]-piperazin-1-yl}-pyridin-3-yl)-acetic acid], the IC50 was at most 1000 nM.

`C[C@@H]1CN(c2ncc(C(=O)O)cc2Cl)CCN1c1cc(-c2ccc(F)cc2)nc(N2CCC[C@H]2C)n1` [Example 94, 5-Chloro-6-{4-[6-(4-fluoro-phenyl)-2-(2-(R)-methyl-pyrrolidin-1-yl) - pyrimidin-4-yl]-3-(R)-methyl-piperazin-1-yl} - nicotinic acid]: the IC50 is at most 1000 nM.

As to `Cc1cc(C(=O)O)cnc1N1CCN(c2cc(-c3ccc(F)cc3)nc(N3CCC[C@H]3C)n2)[C@H](C)C1` [Example 95, 6-{4-[6-(4-Fluoro-phenyl)-2-(2-(R)-methyl-pyrrolidin-1-yl)-pyrimidin-4-yl]-3-(R)-methyl-piperazin-1-yl}-5-methyl-nicotinic acid], the IC50 is at most 1000 nM.

Take `Cc1cc(C(=O)O)cnc1N1CCN(c2cc(-c3ccccc3)nc(N3CCC[C@H]3C)n2)[C@H](C)C1` [Example 96, 5-Methyl-6-{3-(R)-methyl-4-[2-(2-(R)-methyl-pyrrolidin-1-yl)-6-phenyl-pyrimidin-4-yl]-piperazin-1-yl}-nicotinic acid]: the IC50 is at most 1000 nM.

For the compound `CC1CCCN1c1nc(-c2ccc(F)c(Cl)c2)cc(N2CCN(c3ncc(C(N)=O)cn3)CC2)n1` (centres unmarked) [Example 97, 2-{4-[6-(3-Chloro-4-fluoro-phenyl)-2-(2-methyl-pyrrolidin-1-yl)-pyrimidin-4-yl]-piperazin-1-yl}-pyrimidine-5-carboxylic acid amide], the IC50 was at most 1000 nM.

As to `C[C@@H]1CN(c2ncc(CO)cc2Cl)CCN1c1cc(-c2ccc(F)cc2)nc(N2CCC[C@H]2C)n1` [Example 98, (5-Chloro-6-{4-[6-(4-fluoro-phenyl)-2-(2-(R)-methyl-pyrrolidin-1-yl)-pyrimidin-4-yl]-3-(R)-methyl-piperazin-1-yl}-pyridin-3-yl)-methanol], the IC50 is at most 1000 nM.

Regarding `Cc1cc(C(=O)O)cnc1N1CCN(c2cc(-c3ccc(F)cc3)nc(N3CCC[C@@H]3C)n2)[C@H](C)C1` [Example 99, 6-{4-[6-(4-Fluoro-phenyl)-2-(2-(S)-methyl-pyrrolidin-1-yl)-pyrimidin-4-yl]-3-(R)-methyl-piperazin-1-yl}-5-methyl-nicotinic acid], the IC50 was at most 1000 nM.

In the case of `C[C@@H]1CN(c2ncc(CC#N)cc2Cl)CCN1c1cc(-c2ccc(F)cc2)nc(N2CCC[C@H]2C)n1` [Example 100, (5-Chloro-6-{4-[6-(4-fluoro-phenyl)-2-(2-(R)-methyl-pyrrolidin-1-yl)-pyrimidin-4-yl]-3-(R)-methyl-piperazin-1-yl}-pyridin-3-yl)-acetonitrile], the IC50 is at most 1000 nM.

In the case of `C[C@@H]1CN(c2ncc(CC(=O)O)cc2Cl)CCN1c1cc(-c2ccc(F)cc2)nc(N2CCC[C@H]2C)n1` [Example 101, (5-Chloro-6-{4-[6-(4-fluoro-phenyl)-2-(2-(R)-methyl-pyrrolidin-1-yl)-pyrimidin-4-yl]-3-(R)-methyl-piperazin-1-yl}-pyridin-3-yl)-acetic acid], the IC50 is at most 1000 nM.

With `C[C@@H]1CN(c2ncc(C(N)=O)cc2Cl)CCN1c1cc(-c2ccc(F)c(Cl)c2)nc(N2CCC[C@H]2C)n1` [Example 102, 5-Chloro-6-{4-[6-(3-chloro-4-fluoro-phenyl)-2-(2-(R)-methyl-pyrrolidin-l-yl)-pyrimidin-4-yl]-3-(R)-methyl-piperazin-1-yl}-nicotinamide], the IC50 was at most 1000 nM.

On to `C[C@@H]1CN(c2ncc(C(=O)O)cc2Cl)CCN1c1cc(-c2ccc(F)c(Cl)c2)nc(N2CCC[C@H]2C)n1` [Example 103, 5-Chloro-6-{4-[6-(3-chloro-4-fluoro-phenyl)-2-(2-(R)-methyl-pyrrolidin-l-yl)-pyrimidin-4-yl]-3-(R)-methyl-piperazin-1-yl}-nicotinic acid], for which the IC50 was at most 1000 nM.

Consider `C[C@@H]1CN(c2ncc(C(=O)O)cc2Cl)CCN1c1cc(-c2ccc(F)cc2)nc(N2CCOC[C@H]2C)n1` [Example 104, 5-Chloro-6-{4-[6-(4-fluoro-phenyl)-2-(3-(R)-methyl-morpholin-4-yl)-pyrimidin-4-yl]-3-(R)-methyl-piperazin-1-yl}-nicotinic acid], for which the IC50 was at most 1000 nM.

As for `Cc1cc(CC(=O)O)cnc1N1CCN(c2cc(-c3ccc(F)cc3)nc(N3CCC[C@H]3C)n2)[C@H](C)C1` [Example 105, (6-{4-[6-(4-Fluoro-phenyl)-2-(2-(R)-methyl-pyrrolidin-1-yl)-pyrimidin-4-yl]-3-(R)-methyl-piperazin-1-yl}-5-methyl-pyridin-3-yl)-acetic acid], the IC50 is at most 1000 nM.

`Cc1cc(C(=O)NC2CC2)cnc1N1CCN(c2cc(-c3ccc(F)cc3)nc(N3CCCC3C)n2)CC1` (centres unmarked) [Example 106, N-Cyclopropyl-6-{4-[6-(4-fluoro-phenyl)-2-(2-methyl-pyrrolidin-1-yl)-pyrimidin-4-yl]-piperazin-1-yl}-5-methyl-nicotinamide]: the IC50 is at most 1000 nM.

As for `Cc1cc(C(=O)NC2CCC2)cnc1N1CCN(c2cc(-c3ccc(F)cc3)nc(N3CCCC3C)n2)CC1` (centres unmarked) [Example 107, N-cyclobutyl-6-{4-[6-(4-fluorophenyl)-2-(2-methylpyrrolidin-1-yl)pyrimidin-4-yl]piperazin-1-yl}-5-methylnicotinamide], the IC50 was at most 1000 nM.

Regarding `Cc1cc(C(=O)NC2CCCC2)cnc1N1CCN(c2cc(-c3ccc(F)cc3)nc(N3CCCC3C)n2)CC1` (centres unmarked) [Example 108, N-Cyclopentyl-6-{4-[6-(4-fluoro-phenyl)-2-(2-methyl-pyrrolidin-1-yl)-pyrimidin-4-yl]-piperazin-1-yl}-5-methyl-nicotinamide], the IC50 was at most 1000 nM.
